One data set has as its system HT-29. Description: Antiproliferative activity against human HT-29 cells assessed as reduction in cell viability incubated for 24 hrs by MTT assay. The settings on record: HT-29, 24 h. The format is functional, cell-based. Background: Tetrazolium dyes change colour on reduction, which living cells bring about.
The test system of another data set is A549. The data set can be described thus: Antiproliferative activity against human A549 cells assessed as reduction in cell viability incubated for 24 hrs by MTT assay. The format is functional, cell-based. The settings on record: A549, 24 h.
Data set [1] can be described thus: Antiproliferative activity against human AG01522 cells assessed as reduction in cell viability incubated for 24 hrs by MTT assay. The class given is functional, cell-based. The settings on record: AG01522, 24 h.
For data set [2], the system named is MCF7. Description: Antiproliferative activity against human MCF7 cells assessed as reduction in cell viability incubated for 24 hrs by MTT assay. The format is functional, cell-based. The settings on record: MCF7, 24 h.
Data set [3] in a line: Growth inhibition of human 184B5 cells incubated for 48 hrs by SRB assay. The format is toxicity, cell-based.
Another data set deals with MDA-MB-468. Description: Growth inhibition of human MDA-MB-468 cells incubated for 48 hrs by SRB assay. The class given is functional. Background: In SRB staining, fixed cells bind dye roughly in proportion to their protein.
In data set [4] the test system is MCF7. The data set can be described thus: Growth inhibition of human MCF7 cells incubated for 48 hrs by SRB assay. The format is functional.
Another data set concerns MDA-MB-231. The data set can be described thus: Growth inhibition of human MDA-MB-231 cells incubated for 48 hrs by SRB assay. The format is functional.
A short description of data set [5]: Growth inhibition of human MCF-10A cells incubated for 48 hrs by SRB assay. The format is toxicity, cell-based.
The test system of data set [6] is Mycobacterium tuberculosis. Description: Antitubercular activity against Mycobacterium tuberculosis H37Rv by microplate alamar blue assay. The format is functional.
In another data set the test system is Plasmodium falciparum. The data set can be described thus: Antiplasmodial activity against chloroquine sensitive Plasmodium falciparum NF54 incubated for 48 hrs by lactate dehydrogenase assay. The class given is functional, organism-based. The settings on record: NF54, Erythrocyte.
Data set [7] has as its system HeLa. The data set can be described thus: Anticancer activity against human HeLa cells. The format is functional, cell-based.
For data set [8], the system named is MCF7. Description: Anticancer activity against human MCF7 cells. The class given is functional, cell-based.
Data set [9] deals with Mycobacterium tuberculosis. The data set can be described thus: Antitubercular activity against Mycobacterium tuberculosis H37Rv assessed as inhibition of bacterial growth at 250 microg/ml relative to control. The class given is functional.
Data set [10] has as its system Mycobacterium tuberculosis. The data set can be described thus: Antitubercular activity against Mycobacterium tuberculosis H37Rv. The class given is functional.
Another data set relates to Aspergillus fumigatus. Description: Antifungal activity against Aspergillus fumigatus incubated for 48 to 72 hrs by broth microdilution method. The following applies: time 48-72 hrs. The format is functional.
The next data set deals with Aspergillus niger. The data set can be described thus: Antifungal activity against Aspergillus niger incubated for 48 to 72 hrs by broth microdilution method. The settings on record: time 48-72 hrs. The class given is functional. In general terms: In broth dilution the organism is exposed to a series of concentrations in liquid medium.
The subject of the next data set is Candida albicans. The data set can be described thus: Antifungal activity against Candida albicans incubated for 48 to 72 hrs by broth microdilution method. The format is functional. The settings on record: time 48-72 hrs.
The subject of data set [11] is MCF7. Description: Cytotoxicity against human MCF7 cells. The class given is functional, cell-based.
For another data set, the system named is DU-145. Description: Cytotoxicity against human DU-145 cells. The format is functional, cell-based.
The test system of data set [12] is MGC-803. Description: Antitumor activity against human MGC-803 cells xenografted in male BALB/c nude mouse assessed as suppression of tumor growth at 12 mg/kg, ip administered per 2 days relative to control. The class given is functional.
The next data set deals with T-24. Description: Antiproliferative activity against human T24 cells incubated for 48 hrs by MTT assay. The format is functional, cell-based. The settings on record: T-24, 48 h.
Data set [13] relates to MGC-803. The data set can be described thus: Antiproliferative activity against human MGC-803 cells incubated for 48 hrs by MTT assay. The class given is functional, cell-based. The following applies: MGC-803, 48 h.
A further data set relates to HepG2. The data set can be described thus: Anticancer activity against human HepG2 cells incubated for 48 hrs by MTT assay. The format is functional, cell-based. The following applies: HepG2, 48 h.
In a further data set the test system is NCI-H460. The data set can be described thus: Antiproliferative activity against human NCI-H460 cells incubated for 48 hrs by MTT assay. The format is functional, cell-based. The following applies: NCI-H460, 48 h.
A further data set deals with L02. The data set can be described thus: Antiproliferative activity against human HL7702 cells incubated for 48 hrs by MTT assay. The class given is functional, cell-based. The following applies: L02, 48 h.
The target in another data set is Acetylcholinesterase (Homo sapiens, UniProt P22303). The data set can be described thus: Inhibition of human AChE.
Another data set has as its target Cholinesterase (Homo sapiens, UniProt P06276). The data set can be described thus: Inhibition of human BChE.
Data set [14] has as its target Cholinesterases; ACHE & BCHE (Homo sapiens) (UniProt P06276+P22303). The data set can be described thus: Selectivity ratio of IC50 for inhibition of human BchE to IC50 for inhibition of recombinant human AchE. The format is protein assay.
A further data set concerns Staphylococcus aureus. The data set can be described thus: Antibacterial activity against Staphylococcus aureus ATCC 8739 incubated for 24 hrs by broth microdilution method. The class given is functional.
In another data set the test system is Escherichia coli. The data set can be described thus: Antibacterial activity against Escherichia coli ATCC 29213 incubated for 24 hrs by broth microdilution method. The format is functional.
For data set [15], the system named is HeLa. Description: Antiproliferative activity against human HeLa cells incubated for 24 hrs by MTT assay. The class given is functional, cell-based.
Data set [16] in a line: Cytotoxicity against human L02 cells incubated for 24 hrs by MTT assay. The format is toxicity, cell-based.
In the next data set the test system is SGC-7901. Description: Antiproliferative activity against human SGC-7901 cells incubated for 24 hrs by MTT assay. The class given is functional, cell-based. The following applies: SGC-7901, 24 h.

Converted amounts (≈) assume the structure as drawn.

Cholinesterases; ACHE & BCHE (Homo sapiens), sequence (P06276 whole entry, looked up): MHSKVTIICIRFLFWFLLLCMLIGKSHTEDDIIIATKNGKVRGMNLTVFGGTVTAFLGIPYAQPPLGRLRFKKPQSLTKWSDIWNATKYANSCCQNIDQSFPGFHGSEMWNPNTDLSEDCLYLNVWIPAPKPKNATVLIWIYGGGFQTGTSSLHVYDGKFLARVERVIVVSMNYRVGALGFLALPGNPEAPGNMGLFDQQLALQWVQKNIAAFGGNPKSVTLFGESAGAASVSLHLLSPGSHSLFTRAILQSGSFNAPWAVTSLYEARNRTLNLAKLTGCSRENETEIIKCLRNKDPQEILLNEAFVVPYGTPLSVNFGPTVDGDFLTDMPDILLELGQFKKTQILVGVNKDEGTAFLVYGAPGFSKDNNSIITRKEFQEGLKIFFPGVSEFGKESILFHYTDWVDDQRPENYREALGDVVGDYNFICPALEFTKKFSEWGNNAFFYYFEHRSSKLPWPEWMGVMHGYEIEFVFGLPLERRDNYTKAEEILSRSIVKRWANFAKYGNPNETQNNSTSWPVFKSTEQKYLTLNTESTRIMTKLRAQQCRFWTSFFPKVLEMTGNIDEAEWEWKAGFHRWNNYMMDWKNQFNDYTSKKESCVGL
Cholinesterases; ACHE & BCHE (Homo sapiens), sequence (P22303 whole entry, looked up): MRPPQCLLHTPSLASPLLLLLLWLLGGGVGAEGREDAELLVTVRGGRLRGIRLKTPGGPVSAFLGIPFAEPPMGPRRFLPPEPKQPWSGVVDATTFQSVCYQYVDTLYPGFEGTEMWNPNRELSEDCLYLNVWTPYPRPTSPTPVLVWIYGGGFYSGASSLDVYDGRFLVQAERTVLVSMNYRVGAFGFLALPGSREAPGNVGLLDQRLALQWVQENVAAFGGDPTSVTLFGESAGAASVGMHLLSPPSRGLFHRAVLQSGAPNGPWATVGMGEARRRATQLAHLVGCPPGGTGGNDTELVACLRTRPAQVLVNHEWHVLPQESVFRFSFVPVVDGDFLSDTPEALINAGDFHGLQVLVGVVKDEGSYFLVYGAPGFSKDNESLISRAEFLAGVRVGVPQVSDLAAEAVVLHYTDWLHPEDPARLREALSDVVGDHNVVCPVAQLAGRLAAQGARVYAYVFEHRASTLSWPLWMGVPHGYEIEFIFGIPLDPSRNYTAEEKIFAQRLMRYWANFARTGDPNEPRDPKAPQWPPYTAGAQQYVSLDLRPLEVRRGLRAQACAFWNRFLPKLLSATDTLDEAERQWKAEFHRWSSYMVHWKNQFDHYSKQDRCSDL
Cholinesterase, sequence (P06276 whole entry): as the sequence (P06276 whole entry, looked up) above
Acetylcholinesterase, sequence (P22303 whole entry): as the sequence (P22303 whole entry, looked up) above

Consider `O=c1cc(CCl)n(CCCNc2ccnc3cc(Cl)ccc23)cc1OCc1ccccc1`, for which the IC50 (usually the concentration that inhibits the measured activity by half) in the data set with HT-29 stood at 1410 nM; with A549, 810 nM; in data set [1], 2870 nM; in the data set with MCF7 [2], 1260 nM.

Turning to `O=[N+]([O-])c1ccc(S(=O)(=O)N2CCN(c3ccnc4cc(Cl)ccc34)CC2)c([N+](=O)[O-])c1`, the GI50 (as a rule, the concentration that inhibits growth by half) at 48 h amounted to 9 µM in data set [3] and 12.3 µM in [5]. Moreover, the values for the GI50 in the data set with MDA-MB-468, in the data set with MCF7 [4] and with MDA-MB-231 were 700 nM, 2300 nM and 3.4 µM, respectively.

Turning to `COc1ccc(/C=C/C(=N/NC(N)=O)c2ccc(Nc3ccnc4cc(Cl)ccc34)cc2)cc1OC`, the MIC (in general, the lowest concentration that inhibits growth of the organism) in data set [6] is 1.56 µM (≈ 0.783 µg/mL).

For `O=C(/C=C/c1ccc(Cl)cc1)c1ccc(S(=O)(=O)NCCCNc2ccnc3cc(Cl)ccc23)cc1`, half-maximal inhibition in the data set with Plasmodium falciparum (IC50) was put at 100 nM.

Take `C[C@H]1[C@H](C)CC[C@]2(C(=O)OCCNc3ccnc4cc(Cl)ccc34)CC[C@]3(C)C(=CC[C@@H]4[C@@]5(C)CC[C@H](O)C(C)(C)[C@@H]5CC[C@]43C)[C@H]12`: the IC50 in the data set with HeLa [7] was 105 µg/mL (≈ 158 µM); in the data set on MCF7 [8], 48.2 µg/mL (≈ 72.8 µM).

Take `O=C(NNc1ccnc2cc(Cl)ccc12)c1cc(-c2ccccc2)nc2ccccc12`: the inhibition (in general, how much of the control response was suppressed) at 250 µg/mL in data set [9] stood at 99%. In [10], this molecule yielded an MIC of 38 µM (≈ 16.1 µg/mL).

Take `NCCCNc1nc(NCCCN)nc(NC(=S)NNc2ccnc3cc(Cl)ccc23)n1`: the MIC against Aspergillus fumigatus, with Aspergillus niger and in the data set with Candida albicans was 8 µg/mL (≈ 16.8 µM) each time.

For the molecule `CC1(C)CC[C@]2(C(=O)O)CC[C@]3(C)C(=CC[C@@H]4[C@@]5(C)CC[C@H](O)C(C)(C)[C@@H]5CC[C@]43C)[C@@H]2C1` [OLEANOLIC_ACID], the IC50 in the data set with MCF7 [11] and in the data set with DU-145 was > 200 µM each time.

As to `CN(C)CCCNc1c(-c2nc3ccccc3s2)cnc2ccccc12`, the Activity in the data set with MGC-803 [12] is given as 42.4%. Moreover, the IC50 worked out at 3.17 µM with T-24; 2200 nM with MGC-803 [13]; 4.88 µM in the data set with HepG2; 3.22 µM in the data set with NCI-H460; 10.9 µM in the data set with L02.

Regarding `Cc1cc(C(=O)NNc2ccnc3cc(Cl)ccc23)c2ccccc2n1`, in [9], the inhibition at 250 µg/mL worked out at 98%. For the same molecule, the lowest concentration to inhibit growth in data set [10] (MIC) was 42 µM (≈ 15.2 µg/mL).

`COn1cc(CCNC(=S)NCCCCCNc2c3c(nc4ccccc24)CCCC3)c2ccccc21`: the IC50 came to 70 nM on Acetylcholinesterase and 39 nM on Cholinesterase.

For `Clc1ccc2c(Nc3cccc4c(NCCC56CC7CC(CC(C7)C5)C6)cccc34)ccnc2c1`, the Ratio IC50 in [14] is 5.8.

Regarding `CCC[n+]1cc(C(=O)OCC)c(Nc2ccc(OCc3ccccc3)cc2)c2cc3c(cc21)OCO3`, the MIC against Staphylococcus aureus and in the data set with Escherichia coli was 3.12 µM in each case. Moreover, the IC50 in the data set on HeLa [15] came to 7.62 µM; with A549, 5180 nM; in the data set with SGC-7901, 17.6 µM. This molecule also came in with an IC50 at 24 h in [16] of 54.5 µM.

(Values after ChEMBL document CHEMBL6177931, “Exploring diverse frontiers: Advancements of bioactive 4-aminoquinoline-based molecular hybrids in targeted therapeutics and beyond” (Eur J Med Chem, 2024).)
